BindingDB's records for doi:10.1021/jm100498u (Massachusetts General Hospital, 2010)

Target: T1, Gamma-aminobutyric acid receptor subunit alpha-1/beta-2/gamma-2 (Homo sapiens, UniProt P14867+P18507+P47870)
T1 sequence (P14867 whole entry): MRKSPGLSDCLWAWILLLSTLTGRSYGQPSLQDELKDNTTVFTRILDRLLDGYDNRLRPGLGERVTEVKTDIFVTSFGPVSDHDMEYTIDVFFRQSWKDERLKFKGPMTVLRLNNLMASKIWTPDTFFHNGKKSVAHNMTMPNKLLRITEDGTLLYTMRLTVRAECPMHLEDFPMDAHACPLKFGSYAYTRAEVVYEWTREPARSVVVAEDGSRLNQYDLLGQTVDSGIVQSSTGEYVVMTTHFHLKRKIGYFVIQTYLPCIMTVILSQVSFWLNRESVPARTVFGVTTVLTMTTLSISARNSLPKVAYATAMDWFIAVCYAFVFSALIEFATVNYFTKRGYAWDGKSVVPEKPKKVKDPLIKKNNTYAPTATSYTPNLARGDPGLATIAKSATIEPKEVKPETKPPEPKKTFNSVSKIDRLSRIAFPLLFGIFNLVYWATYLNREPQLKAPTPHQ
T1 sequence (P18507 whole entry): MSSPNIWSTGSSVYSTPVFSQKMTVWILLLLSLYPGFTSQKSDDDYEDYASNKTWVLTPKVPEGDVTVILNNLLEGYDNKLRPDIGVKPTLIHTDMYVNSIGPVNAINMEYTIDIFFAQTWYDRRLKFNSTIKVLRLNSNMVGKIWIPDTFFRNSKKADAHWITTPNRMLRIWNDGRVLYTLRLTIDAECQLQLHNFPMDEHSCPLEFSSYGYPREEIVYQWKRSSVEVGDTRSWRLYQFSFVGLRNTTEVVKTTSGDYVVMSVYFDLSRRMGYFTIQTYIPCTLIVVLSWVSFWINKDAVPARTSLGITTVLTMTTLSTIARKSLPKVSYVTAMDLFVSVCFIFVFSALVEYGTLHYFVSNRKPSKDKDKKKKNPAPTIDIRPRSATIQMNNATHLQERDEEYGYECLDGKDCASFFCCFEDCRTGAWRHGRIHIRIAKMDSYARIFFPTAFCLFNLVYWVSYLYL
T1 sequence (P47870 whole entry): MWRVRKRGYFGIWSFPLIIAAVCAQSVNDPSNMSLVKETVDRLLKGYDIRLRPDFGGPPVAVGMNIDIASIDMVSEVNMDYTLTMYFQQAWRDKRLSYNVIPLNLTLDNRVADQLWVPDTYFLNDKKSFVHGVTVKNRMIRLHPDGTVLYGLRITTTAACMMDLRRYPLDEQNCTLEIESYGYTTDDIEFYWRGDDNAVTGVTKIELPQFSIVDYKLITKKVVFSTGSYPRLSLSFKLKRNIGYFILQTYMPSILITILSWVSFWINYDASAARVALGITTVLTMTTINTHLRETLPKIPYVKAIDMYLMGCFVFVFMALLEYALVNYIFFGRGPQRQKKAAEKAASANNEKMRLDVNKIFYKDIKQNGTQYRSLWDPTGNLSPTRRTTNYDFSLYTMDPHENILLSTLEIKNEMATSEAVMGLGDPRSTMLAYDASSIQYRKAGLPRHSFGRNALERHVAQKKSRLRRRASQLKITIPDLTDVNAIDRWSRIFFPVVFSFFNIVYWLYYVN
Experiment: Agonist activity at human GABA-A alpha-1-beta-2-gamma-2 receptor expressed in Xenopus laevis

SMILES | EC50
CCOC(=O)c1cncn1[C@H](C)c1ccc(C2(C(F)(F)F)N=N2)cc1 | 30 µM
CCOC(=O)c1cncn1[C@@H](C)c1ccc(C2(C(F)(F)F)N=N2)cc1 | 6.4 µM
